# Assay results taken from patent publication US20230085307A1, “PYRIDAZINONE COMPOUND AND HERBICIDE” (NISSAN CHEMICAL CORPORATION, priority 2019, published 2023).
# Tests used:
# [1] = test system: late watergrass; experiment: Test Example 1: herbicidal activity, application before weed generation under submerged conditions (Table 16, symbol A); format: in vivo, late watergrass (Echinochloa oryzicola); conditions: amount of applied herbicide 320 g/ha
# Summary of the method: (§1)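 Submerged Wagner pots (alluvial soil, 4 cm water) sown with weed seeds and planted with 2.5-leaf rice seedlings; emulsifiable concentrate diluted in water applied to water surface on sowing day. Held in greenhouse at 25-30 °C; injury scored 0-5 by herbicidal rate after three weeks.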
# [2] = test system: Japanese bulrush; experiment: Test Example 1: herbicidal activity, application before weed generation under submerged conditions (Table 16, symbol B); format: in vivo, Japanese bulrush (Schoenoplectus juncoides); conditions: amount of applied herbicide 320 g/ha
# Summary of the method: as §1
# [3] = test system: oval-leafed pondweed; experiment: Test Example 1: herbicidal activity, application before weed generation under submerged conditions (Table 16, symbol C); format: in vivo, oval-leafed pondweed (Monochoria vaginalis); conditions: amount of applied herbicide 320 g/ha
# Summary of the method: as §1
# [4] = test system: late watergrass; experiment: Test Example 2: herbicidal activity, application during weed generation under submerged conditions (Table 17, symbol A); format: in vivo, late watergrass (Echinochloa oryzicola); conditions: AAH 320 g/ha; application during weed generation, submerged conditions
# Summary of the method: (§2)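 In this pot test, flooded alluvial soil (water depth 4 cm) holds all three species sown as a mixture. Once seedlings have one to two leaves, the compound's emulsion, thinned with water to the intended dose, is poured on the water; grading follows after three weeks on the earlier criteria.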
# [5] = test system: Japanese bulrush; experiment: Test Example 2: herbicidal activity, application during weed generation under submerged conditions (Table 17, symbol B); format: in vivo, Japanese bulrush (Schoenoplectus juncoides); conditions: AAH 320 g/ha; application during weed generation, submerged conditions
# Summary of the method: as §2
# [6] = test system: oval-leafed pondweed; experiment: Test Example 2: herbicidal activity, application during weed generation under submerged conditions (Table 17, symbol C); format: in vivo, oval-leafed pondweed (Monochoria vaginalis); conditions: AAH 320 g/ha; application during weed generation, submerged conditions
# Summary of the method: as §2
# [7] = test system: southern crabgrass; experiment: Test Example 4: herbicidal effect by soil treatment (Table 19, symbol F); format: in vivo, southern crabgrass (Digitaria ciliaris); conditions: amount of applied herbicide 320 g/ha
# Summary of the method: (§3)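 Pre-emergence style soil spray: seeds under ~1.5 cm sterilized diluvial soil received a uniform coat of emulsion diluted to the predetermined herbicide amount. Greenhouse 25–30° C; readout at week three on previously defined criteria.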
# [8] = test system: green foxtail; experiment: Test Example 4: herbicidal effect by soil treatment (Table 19, symbol G); format: in vivo, green foxtail (Setaria viridis); conditions: amount of applied herbicide 320 g/ha
# Summary of the method: as §3
# [9] = test system: barnyard grass; experiment: Test Example 4: herbicidal effect by soil treatment (Table 19, symbol H); format: in vivo, barnyard grass (Echinochloa crus-galli); conditions: amount of applied herbicide 320 g/ha
# Summary of the method: as §3
# [10] = test system: wild oat; experiment: Test Example 4: herbicidal effect by soil treatment (Table 19, symbol I); format: in vivo, wild oat (Avena fatua); conditions: amount of applied herbicide 320 g/ha
# Summary of the method: as §3
# [11] = test system: blackgrass; experiment: Test Example 4: herbicidal effect by soil treatment (Table 19, symbol J); format: in vivo, blackgrass (Alopecurus myosuroides); conditions: amount of applied herbicide 320 g/ha
# Summary of the method: as §3
# [12] = test system: Italian ryegrass; experiment: Test Example 4: herbicidal effect by soil treatment (Table 19, symbol K); format: in vivo, Italian ryegrass (Lolium multiflorum); conditions: amount of applied herbicide 320 g/ha
# Summary of the method: as §3
# [13] = test system: windgrass; experiment: Test Example 4: herbicidal effect by soil treatment (Table 19, symbol L); format: in vivo, windgrass (Apera spica-venti); conditions: amount of applied herbicide 320 g/ha
# Summary of the method: as §3
# [14] = test system: velvetleaf; experiment: Test Example 4: herbicidal effect by soil treatment (Table 19, symbol M); format: in vivo, velvetleaf (Abutilon theophrasti); conditions: amount of applied herbicide 320 g/ha
# Summary of the method: as §3
# [15] = test system: redroot pigweed; experiment: Test Example 4: herbicidal effect by soil treatment (Table 19, symbol N); format: in vivo, redroot pigweed (Amaranthus retroflexus); conditions: amount of applied herbicide 320 g/ha
# Summary of the method: as §3
# [16] = test system: lambsquarters; experiment: Test Example 4: herbicidal effect by soil treatment (Table 19, symbol O); format: in vivo, lambsquarters (Chenopodium album); conditions: amount of applied herbicide 320 g/ha
# Summary of the method: as §3
# [17] = test system: chickweed; experiment: Test Example 4: herbicidal effect by soil treatment (Table 19, symbol P); format: in vivo, common chickweed (Stellaria media); conditions: amount of applied herbicide 320 g/ha
# Summary of the method: as §3
# [18] = test system: false cleavers; experiment: Test Example 4: herbicidal effect by soil treatment (Table 19, symbol Q); format: in vivo, false cleavers (Galium spurium); conditions: amount of applied herbicide 320 g/ha
# Summary of the method: as §3
# [19] = test system: persian speedwell; experiment: Test Example 4: herbicidal effect by soil treatment (Table 19, symbol R); format: in vivo, Persian speedwell (Veronica persica); conditions: amount of applied herbicide 320 g/ha
# Summary of the method: as §3
# [20] = test system: southern crabgrass; experiment: Test Example 5: herbicidal effect by foliage application, plastic box (Table 20, symbol F); format: in vivo, southern crabgrass (Digitaria ciliaris); conditions: foliage application, 320 g/ha, three weeks after application
# Summary of the method: (§4)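 Plants were sown into sterilized diluvial soil under about 1.5 cm cover and kept in a greenhouse at 25° C. to 30° C. Fourteen days on, foliage received an even spray of the diluted emulsion. Herbicidal or crop effect was judged three weeks afterwards.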
# [21] = test system: green foxtail; experiment: Test Example 5: herbicidal effect by foliage application, plastic box (Table 20, symbol G); format: in vivo, green foxtail (Setaria viridis); conditions: foliage application, 320 g/ha, three weeks after application
# Summary of the method: as §4
# [22] = test system: barnyard grass; experiment: Test Example 5: herbicidal effect by foliage application, plastic box (Table 20, symbol H); format: in vivo, barnyard grass (Echinochloa crus-galli); conditions: foliage application, 320 g/ha, three weeks after application
# Summary of the method: as §4
# [23] = test system: wild oat; experiment: Test Example 5: herbicidal effect by foliage application, plastic box (Table 20, symbol I); format: in vivo, wild oat (Avena fatua); conditions: foliage application, 320 g/ha, three weeks after application
# Summary of the method: as §4
# [24] = test system: blackgrass; experiment: Test Example 5: herbicidal effect by foliage application, plastic box (Table 20, symbol J); format: in vivo, blackgrass (Alopecurus myosuroides); conditions: foliage application, 320 g/ha, three weeks after application
# Summary of the method: as §4
# [25] = test system: Italian ryegrass; experiment: Test Example 5: herbicidal effect by foliage application, plastic box (Table 20, symbol K); format: in vivo, Italian ryegrass (Lolium multiflorum); conditions: foliage application, 320 g/ha, three weeks after application
# Summary of the method: as §4
# [26] = test system: windgrass; experiment: Test Example 5: herbicidal effect by foliage application, plastic box (Table 20, symbol L); format: in vivo, windgrass (Apera spica-venti); conditions: foliage application, 320 g/ha, three weeks after application
# Summary of the method: as §4
# [27] = test system: velvetleaf; experiment: Test Example 5: herbicidal effect by foliage application, plastic box (Table 20, symbol M); format: in vivo, velvetleaf (Abutilon theophrasti); conditions: foliage application, 320 g/ha, three weeks after application
# Summary of the method: as §4
# [28] = test system: redroot pigweed; experiment: Test Example 5: herbicidal effect by foliage application, plastic box (Table 20, symbol N); format: in vivo, redroot pigweed (Amaranthus retroflexus); conditions: foliage application, 320 g/ha, three weeks after application
# Summary of the method: as §4
# [29] = test system: lambsquarters; experiment: Test Example 5: herbicidal effect by foliage application, plastic box (Table 20, symbol O); format: in vivo, lambsquarters (Chenopodium album); conditions: foliage application, 320 g/ha, three weeks after application
# Summary of the method: as §4
# [30] = test system: chickweed; experiment: Test Example 5: herbicidal effect by foliage application, plastic box (Table 20, symbol P); format: in vivo, common chickweed (Stellaria media); conditions: foliage application, 320 g/ha, three weeks after application
# Summary of the method: as §4
# [31] = test system: false cleavers; experiment: Test Example 5: herbicidal effect by foliage application, plastic box (Table 20, symbol Q); format: in vivo, false cleavers (Galium spurium); conditions: foliage application, 320 g/ha, three weeks after application
# Summary of the method: as §4
# [32] = test system: persian speedwell; experiment: Test Example 5: herbicidal effect by foliage application, plastic box (Table 20, symbol R); format: in vivo, Persian speedwell (Veronica persica); conditions: foliage application, 320 g/ha, three weeks after application
# Summary of the method: as §4
structure (smiles),measurement,setting,value
CCCC(=O)Oc1c(C)nn(C)c(=O)c1-c1c(-c2ccc(F)cc2)sc2cc(OC)ccc12 [3-064],"Herbicidal effect, A: late watergrass",[1],0 (Herbicidal rate of 5% or less (almost no effect))
same,"Herbicidal effect, B: Japanese bulrush",[2],3 (Herbicidal rate of 40% or more and less than 70%)
same,"Herbicidal effect, C: oval-leafed pondweed",[3],4 (Herbicidal rate of 70% or more and less than 90%)
same,"herbicidal effect rating, A: late watergrass",[4],0 (Herbicidal rate of 5% or less (almost no effect))
same,"herbicidal effect rating, B: Japanese bulrush",[5],1 (Herbicidal rate of 5% or more and less than 20%)
same,"herbicidal effect rating, C: oval-leafed pondweed",[6],3 (Herbicidal rate of 40% or more and less than 70%)
same,"F: southern crabgrass, herbicidal effect grade",[7],0 (Herbicidal rate of 5% or less (almost no effect))
same,"G: green foxtail, herbicidal effect grade",[8],0 (Herbicidal rate of 5% or less (almost no effect))
same,"H: barnyard grass, herbicidal effect grade",[9],0 (Herbicidal rate of 5% or less (almost no effect))
same,"I: wild oat, herbicidal effect grade",[10],0 (Herbicidal rate of 5% or less (almost no effect))
same,"J: blackgrass, herbicidal effect grade",[11],0 (Herbicidal rate of 5% or less (almost no effect))
same,"K: Italian ryegrass, herbicidal effect grade",[12],0 (Herbicidal rate of 5% or less (almost no effect))
same,"L: windgrass, herbicidal effect grade",[13],0 (Herbicidal rate of 5% or less (almost no effect))
same,"M: velvetleaf, herbicidal effect grade",[14],0 (Herbicidal rate of 5% or less (almost no effect))
same,"N: redroot pigweed, herbicidal effect grade",[15],2 (Herbicidal rate of 20% or more and less than 40%)
same,"O: lambsquarters, herbicidal effect grade",[16],3 (Herbicidal rate of 40% or more and less than 70%)
same,"P: chickweed, herbicidal effect grade",[17],4 (Herbicidal rate of 70% or more and less than 90%)
same,"Q: false cleavers, herbicidal effect grade",[18],0 (Herbicidal rate of 5% or less (almost no effect))
same,"R: persian speedwell, herbicidal effect grade",[19],4 (Herbicidal rate of 70% or more and less than 90%)
same,"F: southern crabgrass, herbicidal effect grade",[20],0 (Herbicidal rate of 5% or less (almost no effect))
same,"G: green foxtail, herbicidal effect grade",[21],0 (Herbicidal rate of 5% or less (almost no effect))
same,"H: barnyard grass, herbicidal effect grade",[22],0 (Herbicidal rate of 5% or less (almost no effect))
same,"I: wild oat, herbicidal effect grade",[23],0 (Herbicidal rate of 5% or less (almost no effect))
same,"J: blackgrass, herbicidal effect grade",[24],0 (Herbicidal rate of 5% or less (almost no effect))
same,"K: Italian ryegrass, herbicidal effect grade",[25],0 (Herbicidal rate of 5% or less (almost no effect))
same,"L: windgrass, herbicidal effect grade",[26],0 (Herbicidal rate of 5% or less (almost no effect))
same,"M: velvetleaf, herbicidal effect grade",[27],1 (Herbicidal rate of 5% or more and less than 20%)
same,"N: redroot pigweed, herbicidal effect grade",[28],0 (Herbicidal rate of 5% or less (almost no effect))
same,"O: lambsquarters, herbicidal effect grade",[29],2 (Herbicidal rate of 20% or more and less than 40%)
same,"P: chickweed, herbicidal effect grade",[30],5 (Herbicidal rate of 90% or more (almost completely withered))
same,"Q: false cleavers, herbicidal effect grade",[31],0 (Herbicidal rate of 5% or less (almost no effect))
same,"R: persian speedwell, herbicidal effect grade",[32],4 (Herbicidal rate of 70% or more and less than 90%)
